Source: US9518901B2, “Pretreatment method of biological sample, detection method of RNA, and pretreatment kit” (KABUSHIKI KAISHA DNAFORM, priority 2011, dated 2016)

Key:
[1] = cited from earlier work
[2] = tested on: template RNA, influenza A(H3N2) NA region 675-1075 bases; assay: RT-SmartAmp nucleic acid amplification inhibition due to SDS (DNA polymerase inhibitory activity), without rhinal mucosa; format: biochemical; conditions: 0.5% Triton X-100 in reaction solution, 5 μL of 0.1% SDS solution added; FIG. 10

Compound | pKa [1] | nucleic acid amplification activity (mitigation of inhibition due to SDS) [2]
O=S(=O)(O)CCN1CCOCC1 [MES] | 6.15 | –
Triton X-100 | – | prominent nucleic acid amplification was recognized
